Tests used:
[1] = test system: F10T-K+ (hairpin duplex DNA); assay: FRET melting assay, hairpin duplex DNA; format: binding; conditions: 200 nM DNA, PIPER and 3 not reliable (spectral overlap)
Experimental: (§1) With the library in hand, we began our investigation into G4 stabilization by conducting a Förster resonance energy transfer (FRET) melting assay to assess DNA stabilization using the procedure outlined by De Cian et. al. ^[13] […] The sequences examined (at 200 nM) were the human telomeric G4 in potassium buffer (F21T‐K^+, mixed parallel/hybrid G4) ^[14] and sodium buffer (F21T‐Na^+, antiparallel G4), ^[15] the c‐Myc promoter G‐quadruplex (FmycT‐K^+, parallel G4), ^[16] a polymorphic G4 found in T. brucei (FEBR1T‐K^+, a mixed G4 topology), ^[6b] and a hairpin duplex DNA sequence (F10T‐K^+). Together, these sequences represent targets for therapeutic intervention to treat parasitic infections, ^[6b] or cancer. ^[1b] The topology of each sequence was confirmed independently via circular dichroism (CD, Figure S1). […]
(§2) FRET melting assays were performed to assess ligand affinity for duplex and G-quadruplex
(§3) DNA. Briefly, oligonucleotides of interest were obtained labelled at the 5’ and 3’ ends with FAM (a fluorescence donor) and TAMRA (a fluorescence quencher), respectively. In the folded state, proximity of the donor and quencher result in no observed fluorescence from FAM, since energy is transferred non-radiatively to TAMRA by FRET. As the temperature is raised and the secondary structure denatures, the fluorophores move further apart and the fluorescence signal increases. From the resulting curve, the characteristic melting temperature (Tmax, also referred to as Tm) is defined as the temperature which corresponds to the maxima of the first derivative of the normalised fluorescence signal. The change in melting temperature (ΔTm) induced by the presence of a small molecule ligand provides an indication of the ligand’s ability to stabilise the DNA structure. FRET experiments were performed according to the […]
(§4) procedure reported by De Cian and co-workers[S3] on a Stratagene MX3005P. The method consisted of holding at 25 °C for 5 min, before heating at 1 °C/min to 96 °C in 1 °C increments, […]

[2] = test system: HeLa cervical carcinoma cells; assay: Cytotoxicity, alamarBlue assay, HeLa; format: cell-based, human; conditions: for EC50: Homo sapiens, HeLa, 72 h incubation, alamarBlue fluorescence, read-out: absolute EC50 HeLa
Experimental: (§5) Doxorubicin, suramin and miltefosine were used as control compounds.[ ^6b , ^9 ] After incubation with varied concentrations of the compounds for 72 h, cell viability was measured using either an alamarBlue™ assay (for MRC5, HeLa and T. brucei) or MTT assay (for L. major). Absolute EC50 values and selectivity indexes were then calculated from dose‐response curves (Table 2 and S14). […]
(§6) Cell culture reagents were purchased from Thermo Fisher Scientific (Waltham, MA, USA) and used as-is. The Dulbecco’s Minimal Essential Medium (DMEM) formulation contained either high glucose (4.5 g/L, catalogue number: 10569) or low glucose (1 g/L, catalogue number:
(§7) 10567). RPMI-1640 was provided without sodium pyruvate and with L-glutamine (catalogue number: 11875). Phosphate Buffered Saline (PBS) contained NaCl (9 g/L), KH2PO4 (144 mg/L) and Na2HPO4-7.H2O (795 mg/L, catalogue number: 10010049). TrypLE Express™ was provided with EDTA (458 mg/L) and without Phenol Red (catalogue number: 12604021).
MRC-5 cells (human lung fibroblasts) were grown in monolayer (37 °C, 5 % CO2 and 100 % humidity) in DMEM medium (1 g/L glucose), supplemented with 10% heat-inactivated Fetal Bovine Serum (hiFBS), 2 mM L-glutamine, 100 U / mL penicillin and […] streptomycin. HeLa (Human cervical carcinoma cell line) cells were maintained at 37 °C and 5 % CO2 in high glucose DMEM (4.5 g / L) supplemented with 10% hiFBS, 100 U / ml penicillin, […] streptomycin, 2 mM L-glutamine and non-essential aminoacids (1X).
(§8) Cells were cultured according to ATCC recommendations and were used for the experiments while in the exponential growth phase. […]
(§9) Cytotoxicity was measured through the alamarBlue® assay (Thermo Fisher Scientific).[S6,S13] Briefly, 5×10^3 MRC-5 or HeLa cells were seeded in 96-wells plates (100 µL / well) in the presence of increasing concentrations of compound. After 72 hrs of incubation at 37 °C, 20 µL of alamarBlue® solution (110 ng / ml) was added to each well and cells were reincubated for 4 hrs at 37 °C. Then, 50 µL of 3 % SDS were added to each well. The plate was incubated at 37 °C for an extra hour and then analysed by fluorescence with an Infinite F200 plate reader (TECAN Austria, GmbH). The excitation wavelength was fixed at 550 nm and the emission wavelength at 590 nm. The results are expressed as the concentration of compound that reduces

T. brucei = assay: Trypanocidal activity, alamarBlue assay; format: cell-based; conditions: for EC50: Trypanosoma brucei, 72 h incubation, alamarBlue fluorescence, read-out: absolute EC50 T. brucei
Experimental: as §5, §6, §7
MRC-5 cells (human lung fibroblasts) were grown in monolayer (37 °C, 5 % CO2 and 100 % humidity) in DMEM medium (1 g/L glucose), supplemented with 10% heat-inactivated Fetal Bovine Serum (hiFBS), 2 mM L-glutamine, 100 U / mL penicillin and […]
streptomycin. […]
as §8
hiFBS. Parasites were split every other day and maintained in their experimental growth phase (below 2 million parasites per mL).
as §9

[3] = test system: Febr1T (DNA, G4) GGGCAGGGGGTGATGGGGAGGAGCCAGGG; assay: FRET melting; conditions: 10 mM K+, 90 mM Li+; 10 mM Li cacodylate; 5 µM ligand, 200 nM DNA
[4] = test system: F21T-Na+ (human telomeric G-quadruplex, antiparallel); assay: FRET melting assay, human telomeric G4 in sodium buffer; format: binding; conditions: 200 nM DNA, PIPER and 3 not reliable (spectral overlap)
Experimental: as §1, §2, §3, §4

[5] = 5 μM ligand, 10 mM KCl, 90 mM LiCl, 10 mM Li cacodylate
[6] = 5 μM ligand, 100 mM NaCl, 10 mM Li cacodylate
[7] = selectivity index from EC50 values

SMILES | ΔTm F10T-K+ ([1]; 1 µM ligand) [°C] | ΔTm F10T-K+ [1, 5] [°C] | ΔTm F10T-K+ ([1]; 10 µM ligand) [°C] | EC50 [2] [µM] | EC50 (T. brucei) [µM] | ΔTm [3] [°C] | ΔTm F21T-Na+ ([4]; 1 µM ligand) [°C] | ΔTm F21T-Na+ [4, 6] [°C] | ΔTm F21T-Na+ ([4]; 10 µM ligand) [°C] | SI (MRC5/HeLa) [2, 7] | SI (MRC5/T. brucei) (T. brucei; [7])
CN1CCN(CCCN2C(=O)c3ccc4c5c(ccc(c35)C2=O)C(=O)N(CCCN2CCN(C)CC2)C4=O)CC1 [Compound 1] | 0 ± 1 | 1±1 | 3 ± 1 | 0.5 ± 0.05 | 0.61 ± 0.3 | 9±1 | – | – | – | – | –
CN1CCN(CCCN2C(=O)c3ccc4c5ccc6c7c(ccc(c8ccc(c3c48)C2=O)c75)C(=O)N(CCCN2CCN(C)CC2)C6=O)CC1 [Compound 3] | 1 ± 1 | 6±2 | 13 ± 2 | 53 ± 6.2 | 0.027 ± 0.01 | – | 18 ± 2 | 35±4 | > 40 | 0.04 | 78
CN1CCN(CCCN2C(=O)c3ccc(Oc4ccc(C(C)(C)c5ccc(Oc6ccc7c(c6)C(=O)N(CCCN6CCN(C)CC6)C7=O)cc5)cc4)cc3C2=O)CC1 [Compound 9] | – | 0±1 | – | 29 ± 3.5 | 33 ± 24 | −4±1 | – | −4±1 | 6 ± 4 | – | –
CN1CCN(CCCNC(=O)c2ccc(Oc3ccc(C(C)(C)c4ccc(Oc5ccc(C(=O)NCCCN6CCN(C)CC6)c(C(=O)NCCCN6CCN(C)CC6)c5)cc4)cc3)cc2C(=O)NCCCN2CCN(C)CC2)CC1 [Compound 11] | – | 0±1 | 1 ± 1 | 14 ± 1 | 2.8 ± 2 | 6±1 | -4 ± 1 | 1±1 | 9 ± 2 | – | –

Reference: PMC8251916 (Chemistry (Weinheim an Der Bergstrasse, Germany), 2021)
